“Also recorded” adds a separate entry of the source.

Data set [1] concerns patient with severe spondyloarthropathy. Kind of data set: Findings in a patient with severe spondyloarthropathy (Example 1, 18 month treatment). The data set is classed as in vivo, human. As to conditions: for efficacy of previous anti-rheumatic medication: patient history, used alone and in various combinations. The source says: The patient is a person who has radiologically verified bilateral sacroilitis and disease of large joints. They are also positive for the HLA-B27 antigen. The patient fulfills the ESSG criteria and the Amor criteria for spondylarthorpathy. […] In addition they have had symptoms also in small peripheral joints such as fingers and toes. […] The previous anti-rheumatic medication has included methotrexate, cyclosporine, infliximab, intramusclar.
During the study the vital signs and blood chemistry was controlled first weekly, then biweekly and after three months once per month.
No corticosteroid injections are given.

For data set [2], the system named is patient with psoriasis arthropathy.
The next data set has as its system spondylarthropathy. The settings on record: cited from earlier work; for efficacy observed in spondylarthropathy: mainly in the treatment of peripheral arthritis.

Consider `Cn1cnc([N+](=O)[O-])c1Sc1ncnc2nc[nH]c12` [azathioprine, reference compound], for which the “efficacy of previous anti-rheumatic medication” value in data set [1] is on record as “inefficient”.
The same measure, in the same setting: next, `Cc1oncc1C(=O)Nc1ccc(C(F)(F)F)cc1` [leflunomide, reference compound]: “inefficient”.
Turning to `CN(Cc1cnc2nc(N)nc(N)c2n1)c1ccc(C(=O)N[C@@H](CCC(=O)O)C(=O)O)cc1` [methotrexate, reference compound], the “efficacy of previous anti-rheumatic medication” value in data set [1] is “inefficient”. Moreover, in data set [2] (patient history, methotrexate 20 mg per week, cyclosporine 150 mg, discontinued), the “efficacy of previous anti-rheumatic therapy” value is reported as “lack of efficacy”. Moreover, the “efficacy in sporiasis arthropathy” value in the data set on spondylarthropathy (in vivo) was “some efficacy”. Moreover, in the data set on spondylarthropathy, the “efficacy observed in spondylarthropathy” value was “minor efficacy”.
With `Cc1ccc(NC(=O)c2ccc(CN3CCN(C)CC3)cc2)cc1Nc1nccc(-c2cccnc2)n1` [study drug, 4-[(4-methyl-1-piperazin-1-ylmethyl)-N-[4-methyl-3-[4-(3-pyridinyl)-2-pyrimidinyl]amino]phenyl]benzamide Monomethanesulfonate], in data set [1] (18 months of treatment), the “infections during the treatment” value is given as “no significant infections”. This molecule registered a swollen joint count in data set [1] (after 18 month treatment, 31 before treatment, oral, up to 400 mg per day, added to hydroxychloroquine, prednisone, ibuprofen) of 5. Moreover, the side effects entry in data set [1] (after 18 months of treatment) is “no serious side effects have been observed; also recorded: slight dryness of the skin”. Further, in data set [1] (after 18 months of treatment, 1.5 before treatment, high score = high disability), the “health assessment questionnaire score (HAQ)” value came to 0.75. The “time after start at which antirheumatic effect could be observed (movements in shoulder joints improved)” value in data set [1] (after study drug was started) is reported as “two”. Besides, the CRP is 11 mg/L in data set [1] (after the treatment (18 months), 42 mg/L before treatment) and 25 in data set [2] (after three month treatment, from 47). The same molecule returned a tender joint count in data set [1] (after the treatment (18 months), 10 before treatment) of 1. This molecule yielded an erythrocyte sedimentation rate in data set [1] (after the treatment (18 months), 28 mm/h before treatment) of 11 mm/h. In addition, the “pain experienced by the patient, visual analogue scale (VAS)” value in data set [1] (after treatment (18 months), 37 mm before treatment) was found to be 11 mm. Further, the “disease activity as estimated by the patient (VAS)” value in data set [1] (after treatment (18 months), 69 mm before treatment) is 11 mm. For the same molecule, the “side effects or infections during the treatment” value in data set [2] (3 month study) was “No serious side effects or infections; also recorded: slight tiredness and mild muscle cramps”. Also, the “number of swollen joints” value in data set [2] (after three month treatment, from 5, oral, up to 400 mg per day, added to naproxen, injected joints omitted) came to 2. This molecule gave a BASDAI score in data set [2] (after three month treatment, from 6.5) of 3.1. The “number of tender joints” value in data set [2] (after three month treatment, from 10) was 0. In addition, the “general pain (VAS)” value in data set [2] (after three month treatment, from 33 mm) was found to be 12 mm. In addition, the “night pain experienced by the patient (VAS)” value in data set [2] (after three month treatment, from 34 mm) was determined as 4 mm. In addition, the ESR in data set [2] (after three month treatment, from 40) worked out at 12. Moreover, the “disease activity (VAS)” value in data set [2] (after three month treatment, from 41 mm) is recorded as 23 mm.
With `O=C(O)c1cc(/N=N/c2ccc(S(=O)(=O)Nc3ccccn3)cc2)ccc1O` [sulfasalazine], the “efficacy observed in spondylarthropathy” value in the data set on spondylarthropathy is listed as “minor efficacy”.
On to infliximab, for which the “efficacy of previous anti-rheumatic medication” value in data set [1] is “inefficient”.
